Assays:
Assay type in all cases: physicochemical
[1] = Cloud point, 5 wt % actives in water
Description: (§1) The alkoxylated product that results from the above reaction conditions can be characterized using common analytical techniques, including hydroxyl value, melting point, unreacted cannabinoid (wt %), cloud point (5 wt % in water), pH (5 wt % in water), ^1H NMR-structural analysis, and appearance. Comparisons between a cannabinoid and its alkoxylated form (such as CBD and e-CBD in EXAMPLE 1 below) are made in Table 1 exemplifying how the e-CBD having a (POE) value of 12 behaves differently as compared to its non-ethoxylated precursor. While these properties are strongly dependent on the number of moles of EO used in relation to the equivalents of CBD, in order to obtain a water soluble or dispersible product, the number of moles of EO in the e-CBD may be between about 1-100, more preferably between about 10-25.

[2] = Water solubility of e-CBD compounds, 5 wt % actives in water
Description: as §1
By varying the molar ratio of the epoxide-to-cannabinoid starter compound to produce a product having a (POE) value between 7 and 36, the hydrophilicity of the cannabinoid may be tuned (see Table 2). The water solubility of the alkoxylated-CBD compounds (Examples 1-4) was determined at room (25° C.) and physiological (37° C.) temperatures.

pH of 5 wt % in water = experiment: pH of 5 wt % in water
Description: as §1

C=C(C)[C@@H]1CCC(C)=C[C@H]1c1c(O)cc(CCCCC)cc1O [CBD, cannabidiol]
Insoluble: Cloud Point (° C., 5 wt % actives in water) [1] | Water Solubility (5 wt % in water at 37° C.) ([2]; Table 1, 5 wt % in water, 37° C.) | Water Solubility (5 wt % actives in water at 25° C.) ([2]; Table 2, 5 wt % actives in water, 25° C. (room temperature)) | Water Solubility (5 wt % actives in water at 37° C.) ([2]; Table 2, 5 wt % actives in water, 37° C. (physiological temperature)) | pH (5 wt % in water at 25° C.) (pH of 5 wt % in water)

Source: patent US20240383831A1, “ALKOXYLATION OF CANNABIDIOL AND OTHER CANNABINOIDS” (Indorama Ventures Oxides LLC, priority 2021, published 2024)
